{"source": "patent US20160368943A1", "about": "“SUBSTITUTED PURINE COMPOUNDS” (EPIZYME, INC., priority 2013, published 2016)", "key": {"[1]": {"test": "Plasma protein binding by equilibrium dialysis, human", "format": "in vitro ADME", "conditions": "both sexes, pH 7.4, read-out: Plasma free fraction", "method": "(§1) Plasma protein binding was assessed by equilibrium dialysis, utilizing the HT-dialysis cell format with a cellulose semi permeable membrane (molecular weight cut off of 5000 Da). Plasma was warmed to 37° C. and adjusted to pH 7.4 before use. Male Sprague-Dawley rat, male Beagle dog, male CD-1 mouse and mixed sex human plasma was used for the studies. A 5 μM test compound solution was prepared in isotonic phosphate buffer and rat, dog, mouse and human plasma (final DMSO concentration of 0.5%). The plasma-containing solution was introduced to one side of the membrane, and the plasma-free on the other. Incubations were performed for 2-16 hours in duplicate in order to allow the compound to reach equilibrium. Haloperidol was included as the control compound for each species. At the end of the equilibration time the cells were emptied. Following protein precipitation, the samples were centrifuged and analyzed by LC-MS/MS. The samples from the protein containing compartment were quantified using calibration standards prepared in plasma and the protein free compartments were quantified using calibration standards prepared in dialysis buffer."}, "[2]": {"test": "Hepatocyte stability, dog", "format": "in vitro ADME, Beagle dog", "method": "(§2) Human, Beagle dog, Sprague-Dawley rat, and CD-1 mouse cryopreserved hepatocytes were obtained from XenoTech and stored at −150° C. until use. The hepatocytes were thawed and prepared according to the vendor's instructions, pooled into Krebs Henseleit buffer (KHB, pH 7.4), and kept on ice prior to initiating an experiment. […] The reaction mixture was incubated in a shaking water bath at 37° C. Aliquots of the incubation solutions were sampled at 0, 15, 30, 60, and 120 minutes. The reaction was immediately terminated by the addition of three volumes of ice-cold acetonitrile containing 0.1% formic acid and internal standards. After centrifugation at 1640×g for 10 minutes, the supernatants were transferred into HPLC vials, and the test compound was analyzed by LC-MS/MS. Positive controls, testosterone (20 μM) and 7-hydroxycoumarin (100 μM), were performed in parallel to confirm the enzyme activities of the hepatocytes used.\n(§3) Experimental half-lives were transformed to the corresponding intrinsic clearance values and subsequently scaled to predicted in vivo clearance values, using the well-stirred model as previously described (Houston, Biochemical Pharmacology 47(9): 1469-1479, 1994; Obach, Drug Metabolism and Disposition 27(11): 1350-1359, 1999), with appropriate species-specific scaling factors (Barter et al., Current Drug Metabolism 8(1): 33-45, 2007)."}, "[3]": {"test": "Hepatocyte stability, rat", "format": "in vitro ADME, Sprague-Dawley rat", "method": "as §2, §3"}, "[4]": {"test": "Liver microsome stability, rat", "format": "in vitro ADME", "method": "The final incubation volume was 50 μL. Control incubations were included for each species where 0.1 M phosphate buffer pH 7.4 was added instead of NADPH (minus NADPH). Two control compounds were included for each species. […] The control (minus NADPH) was incubated for 45 minutes only. The reactions were stopped by transferring 25 μL of incubate to 50 μL methanol at the appropriate time points. The incubation plates were centrifuged at 2,500 rpm for 20 minutes at 4° C. to aid protein precipitation. Experimental half-lives were transformed to the corresponding intrinsic clearance values and subsequently scaled to predicted in vivo clearance values, using the well-stirred model as previously described (Houston, Biochemical Pharmacology 47(9): 1469-1479, 1994; Obach, Drug Metabolism and Disposition 27(11): 1350-1359, 1999), with appropriate species-specific scaling factors (Barter et al., Current Drug Metabolism 8(1): 33-45, 2007)."}, "[5]": {"test": "Pharmacokinetic study in rat", "format": "in vivo, Sprague-Dawley rat", "method": "In the IV bolus study, 1 mg/kg doses prepared in 0.4% HPBCD in saline were administered via foot dorsal vein injection. At each timepoint, 150 μL of blood was collected via tail vein into EDTA-K2 tubes. The blood samples were maintained in wet ice initially and centrifuged to obtain plasma (2000 g, 4° C., 5 minutes) within 15 minutes post sampling. In the PO study, doses prepared in 10% Ethanol:5% Solutol HS15:85% (5% of dextrose in water) were administered by oral gavage. Samples were collected as described above. In the IV infusion study, doses were prepared in 10% PEG400 in 0.9% saline and administered into the femoral vein, at a dose of 4.7 mg/kg/day for 7 days. 500 μL of blood was collected by jugular venipuncture at timepoints over 7 days and placed on crushed wet ice until centrifugation, which was carried out as soon as practical. The samples were centrifuged for 10 minutes at 4° C. at 2700 rpm. The resultant plasma was separated and frozen immediately over dry ice for LC-MS/MS analysis. […] Typically, samples were injected onto an LC-MS/MS system using a Waters BEH Phenyl column. The aqueous mobile phase was water with 0.1% NH4OH (A), and the organic mobile phase was acetonitrile with 0.1% NH4OH (B). The gradient was as follows: 37% B for the first 0.2 min, increased to 44% B from 0.2 to 0.6 min, maintained at 44% B for 0.5 min, and decreased to 37% B within 0.05 min. The injection volume was 2 uL, and the total run time was 1.5 min with a flow rate of 0.6 mL/min. […] The ionization was conducted in the positive ion mode using the MRM transition [M+H]+m/z 563.5 parent ion to m/z 326.3 daughter ion, incorporating a turbo-ionspray interface. Eight to ten calibration standards were prepared in blank plasma of the relevant species providing a typical standard curve concentration range of 5-500 ng/mL. Pharmacokinetic parameters were calculated by noncompartmental methods using WinNonlin (version 5.3; Pharsight, St. Louis, Mo.). Parameters are presented as mean±S.D."}, "[6]": {"test": "Plasma stability, dog", "format": "in vitro ADME", "conditions": "Beagle, pooled plasma, 37° C., read-out: Half-life in ex vivo blood plasma", "text": "Samples were quenched in methanol and analyzed by LC-MS/MS analysis."}, "[7]": {"test": "Liver microsomes supplemented with UDPGA and alamethacin (glucuronidation)", "format": "in vitro ADME"}, "[8]": {"test": "Plasma protein binding by equilibrium dialysis, dog", "format": "in vitro ADME", "conditions": "male, beagle, pH 7.4, read-out: Plasma free fraction", "method": "as §1"}, "[9]": {"conditions": "male, Sprague-Dawley, plasma, SD rat, IV bolus, 1 mg/kg"}, "[10]": {"conditions": "male, Sprague-Dawley, plasma, SD rat, IV infusion, 4.7 mg/kg/day for 7 days"}, "[11]": {"conditions": "male, Sprague-Dawley, plasma, SD rat, PO, 10 mg/kg"}}, "note": "Where two headings read alike, the source gives them in different places.", "data": [{"smiles": "CC(C)N(C[C@H]1O[C@@H](n2cnc3c(N)ncnc32)[C@H](O)[C@@H]1O)[C@H]1C[C@@H](CCc2nc3cc(C(C)(C)C)ccc3[nH]2)C1", "note": "[Compound A, (2R,3R,4S,5R)-2-(6-amino-9H-purin-9-yl)-5-((((1r,3S)-3-(2-(5-(tert-butyl)-1H-benzo[d]imidazol-2-yl)ethyl)cyclobutyl)(isopropyl)amino)methyl)tetrahydrofuran-3,4-diol]", "values": [{"measurement": "fraction unbound at 5 μM", "setting": "[1]", "result": 0.125}, {"measurement": "Scaled Hepatic CL from hepatocytes", "setting": "[2]", "result": 21, "unit": "mL/min/kg"}, {"measurement": "hepatocyte CLint at 3 μM", "setting": "[2]; beagle, cryopreserved hepatocytes in suspension, pH 7.4, 3 μM", "result": 14.9, "unit": "µL/min/1e6 cells"}, {"measurement": "Scaled Hepatic CL from hepatocytes", "setting": "[3]", "result": 7, "unit": "mL/min/kg"}, {"measurement": "microsomal CLint at 3 μM", "setting": "[4]; liver microsomes, pH 7.4, NADPH, 3 μM", "result": 72, "unit": "µL/min/mg"}, {"measurement": "Scaled Hepatic CL from liver microsomes", "setting": "[4]; well-stirred model", "result": 45, "unit": "mL/min/kg"}, {"measurement": "CL", "setting": "[5]; SD rat, IV bolus, 1 mg/kg", "result": "67.8 ± 5.3", "unit": "mL/min/kg"}, {"measurement": "t1/2", "setting": "[5]; SD rat, IV bolus, 1 mg/kg", "result": "3.73 ± 1.03", "unit": "h"}, {"measurement": "time to steady state", "setting": "[5]; SD rat, IV infusion, 4.7 mg/kg/day", "result": "≤ 1", "unit": "h"}, {"measurement": "F", "setting": "[5]; SD rat, PO, 10 mg/kg", "result": "<1", "unit": "%"}, {"measurement": "AUC(0-inf)", "setting": "[5]; [9]", "result": "0.44 ± 0.03", "unit": "µM·h"}, {"measurement": "AUC(0-t)", "setting": "[5]; [9]", "result": "0.43 ± 0.03", "unit": "µM·h"}, {"measurement": "Cmax", "setting": "[5]; [9]", "result": "2040 ± 230", "unit": "nM"}, {"measurement": "MRT", "setting": "[5]; [9]", "result": "0.41 ± 0.1", "unit": "h"}, {"measurement": "Tmax", "setting": "[5]; [9]", "result": 0.05, "unit": "h"}, {"measurement": "AUC(0-inf)", "setting": "[5]; [10]", "result": 12.5, "unit": "µM·h"}, {"measurement": "AUC(0-t)", "setting": "[5]; [10]", "result": 12.5, "unit": "µM·h"}, {"measurement": "Cmax", "setting": "[5]; [10]", "result": 130, "unit": "nM"}, {"measurement": "Tmax", "setting": "[5]; [10]", "result": 4, "unit": "h"}, {"measurement": "concentration at 7 days", "setting": "[5]; male, Sprague-Dawley, plasma, SD rat, IV infusion, 4.7 mg/kg/day for 7 days, read-out: average steady state concentration", "result": 78, "unit": "nM"}, {"measurement": "Cmax", "setting": "[5]; [11]", "result": 0.7, "unit": "nM"}, {"measurement": "Tmax", "setting": "[5]; [11]", "result": 0.25, "unit": "h"}, {"measurement": "half-life", "setting": "[5]; male, Sprague-Dawley, rat, plasma, iv, 1 mg/kg, SD rat, IV bolus", "result": 3.7, "unit": "h"}, {"measurement": "clearance", "setting": "[5]; male, Sprague-Dawley, rat, plasma, iv, 1 mg/kg, SD rat, IV bolus, 1 mg/kg, read-out: CL", "result": 68, "unit": "mL/min/kg"}, {"measurement": "Vd", "setting": "[5]; male, Sprague-Dawley, rat, plasma, iv, 1 mg/kg, SD rat, IV bolus, 1 mg/kg, read-out: VDss", "result": 1.66, "unit": "L/kg"}, {"measurement": "Vd", "setting": "[5]; male, Sprague-Dawley, rat, plasma, iv, 1 mg/kg, rat, read-out: Unbound VDss", "result": 6.1, "unit": "L/kg"}, {"measurement": "clearance", "setting": "[5]; male, Sprague-Dawley, rat, plasma, iv, 4.7 mg/kg/day, SD rat, IV infusion, 4.7 mg/kg/day, Css 78 nM, read-out: CL estimate from IV infusion (dose rate divided by Css)", "result": 74, "unit": "mL/min/kg"}, {"measurement": "oral bioavailability (in words)", "setting": "[5]; rat, PO", "result": "low and negligible"}, {"measurement": "half-life at 1 μM", "setting": "[6]", "result": "> 2", "unit": "h"}, {"measurement": "turnover (glucuronidation)", "setting": "[7]", "result": "no turnover was observed"}, {"measurement": "fraction unbound at 5 μM", "setting": "[8]", "result": 0.234}]}]}
